Where two headings read alike, the source gives them in different places.
Legend:
[1] = biological target: CDK6/Cyclin D1 (Homo sapiens (Human), UniProt Q00534); assay: CDK6/CyclinD1 enzymatic activity assay (TR-FRET); format: biochemical; details: ATP 250 μM, read-out: CDK6_D1 IC50
Protocol: CDK6/CyclinD1 Enzymatic Activity Assay
(§1) The inhibitory activity of compounds was evaluated in vitro using TR-FRET assay with white 384-well low volume microplate (Greiner Bio-One). CDK6/Cyclin D1 catalyzed phosphorylation of peptide in the presence and absence of compounds was measured and used in IC50 determination. Recombinant protein complex CDK6/Cyclin D1, expressed from insect cell, was purchased from ProQinase. Testing compounds were dissolved in DMSO at 0.1 mM and tested in 9-dose IC50 mode. The reaction mixture was prepared by mixing CDK6/Cyclin D1 (1 nM final), ULight-4E-BP1 (100 nM final, Perkinelmer, TRF0128-D), and ATP (250 μM final) in assay buffer (20 mM of HEPES pH 7.4, 1 mM of EGTA, 0.05% BSA, 0.005% Tween 20, and 1 mM TCEP). The compound of interest in DMSO was added to each well in 3-fold serial dilution by dispenser (TECAN D300E). After 20 minutes preincubation at room temperature, 0.1 μL MgCl2 (10 mM final) was added to initiate the reaction. Following a 60 minutes incubation at 37° C., the reaction was stopped by addition of 2 μL of quenching buffer consisting of Lance detection buffer (Perkinelmer CR97-100C), 2 nM LANCE Ultra Europium-anti-P-4E-BP1 (Perkinelmer, TRF0216-D), 10 mM EDTA, and incubate at room temperature for additional 60 minutes in dark. The reaction signal was measured by Envision multimode plate reader (PerkinElmer, 2102-0010). IC50 values were determined by fitting the data to the standard 4 parameters with Hill Slope using GraphPad Prism software.

[2] = test system: MCF7 adenocarcinoma cell line; assay: Cell proliferation studies in MCF7 cells (ATP-Lite, 10 days); format: cell-based; details: read-out: PROLIFERATION_CTG_MCF7 IC50
Protocol: Cell Proliferation Studies in MCF7 Cells
Cell proliferation studies were conducted in MCF7 adenocarcinoma cell line. Cells were maintained in DMEM (Coming, Catalog #: 10-013-CV) supplemented with 10% v/v FBS (Gibco, Catalog #: 26140-079), 1% v/v Penicillin Streptomycin (Gibco, Catalog #15140-122) Cells were seeded in 384-well plates at a density of 100 or 200 cells/well. Compounds dissolved in DMSO were plated in quadruplicate using a digital dispenser (D300E, Tecan) and tested on a 9-point 3-fold serial dilution. Cells were incubated for 10 days in a 37° C. active humidified incubator at 5% CO2. A media exchange and second compound addition were performed on day 5. Cell viability was measured using the ATP-Lite 1-Step Luminescence reagent (Perkin Elmer, Catalog #: 6016731) as per manufacturer's instructions. Luminescence signal was measured with a multimode plate reader (Envision 2105, Perkin Elmer). Raw data files were imported to Dotmatics Screening Ultra for IC50 analysis. Luminescence values were normalized to both background and DMSO controls to obtain a percentage of viable cells relative to DMSO vehicle control.

[3] = biological target: CDK4/Cyclin D1 (Homo sapiens (Human), UniProt P11802); assay: CDK4/CyclinD1 enzymatic activity assay (TR-FRET); format: biochemical; details: ATP 2 mM, read-out: CDK4_D1 IC50
Sequence of CDK4/Cyclin D1 (P11802 whole entry): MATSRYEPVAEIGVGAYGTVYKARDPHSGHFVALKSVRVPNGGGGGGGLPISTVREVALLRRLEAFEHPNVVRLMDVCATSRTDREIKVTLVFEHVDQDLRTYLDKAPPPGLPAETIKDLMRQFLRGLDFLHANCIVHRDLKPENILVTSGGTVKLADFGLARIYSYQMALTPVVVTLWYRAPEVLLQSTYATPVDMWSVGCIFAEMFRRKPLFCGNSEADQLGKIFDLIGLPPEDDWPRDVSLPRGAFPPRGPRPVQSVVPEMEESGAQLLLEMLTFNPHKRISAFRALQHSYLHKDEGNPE
Sequence of CDK4/Cyclin D1 (P24385 whole entry partner): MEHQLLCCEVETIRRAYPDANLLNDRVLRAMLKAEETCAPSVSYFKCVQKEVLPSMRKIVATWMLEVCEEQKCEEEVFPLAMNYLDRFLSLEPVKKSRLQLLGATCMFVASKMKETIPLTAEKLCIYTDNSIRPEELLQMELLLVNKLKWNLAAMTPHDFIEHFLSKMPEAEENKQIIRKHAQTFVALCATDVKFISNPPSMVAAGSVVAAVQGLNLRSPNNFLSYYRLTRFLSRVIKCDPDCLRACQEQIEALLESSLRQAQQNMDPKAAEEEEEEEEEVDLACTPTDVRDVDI
Protocol: CDK4/CyclinD1 Enzymatic Activity Assay
as §1, with “Bio-One). CDK4/Cyclin” for “Bio-One). CDK6/Cyclin”, “was measured.” for “was measured and used in”, “complex CDK4/Cyclin” for “complex CDK6/Cyclin”, “mixing CDK4/CyclinD1” for “mixing CDK6/Cyclin D1”, “ATP (2 mM” for “ATP (250 μM”, “temperature,” for “temperature, 0.1 μL”

Sequence of CDK6/Cyclin D1 (Q00534 whole entry): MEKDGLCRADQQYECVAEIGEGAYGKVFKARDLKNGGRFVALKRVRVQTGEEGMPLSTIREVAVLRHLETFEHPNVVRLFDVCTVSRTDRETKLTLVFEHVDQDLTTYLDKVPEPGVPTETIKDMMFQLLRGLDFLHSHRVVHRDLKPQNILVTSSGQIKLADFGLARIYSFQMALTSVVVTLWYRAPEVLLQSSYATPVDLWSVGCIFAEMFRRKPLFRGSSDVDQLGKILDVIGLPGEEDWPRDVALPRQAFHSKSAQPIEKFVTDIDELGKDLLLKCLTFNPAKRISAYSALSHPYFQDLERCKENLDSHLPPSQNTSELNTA
Sequence of CDK6/Cyclin D1 (P24385 whole entry partner): as the sequence (P24385 whole entry partner) above

Compound	IC50 [1]	IC50 [2]	IC50 [3]	IC50 ([2]; Homo sapiens, 240 h)
4-(2,6-Dimethyl-3-propan-2-ylthieno[2,3-d]imidazol-5-yl)-N-[5-(4-ethyl-6,6-difluoro-1,4-diazepan-1-yl)pyridin-2-yl]-5-fluoropyrimidin-2-amine [Example 68]	≤ 20 nM	20 to 200 nM	–	–
Cc1c(-c2nc(Nc3ccc(C4CCCN(C)C4)cn3)ncc2F)sc2c1ncn2C(C)C (single isomer, unassigned) [Example 126, 5-Fluoro-N-[5-[-1-methylpiperidin-3-yl]pyridin-2-yl]-4-(6-methyl-3-propan-2-ylthieno[2,3-d]imidazol-5-yl)pyrimidin-2-amine]	≤ 20 nM	20 to 200 nM	≤ 20 nM	–
Fc1cnc(Nc2ccc(N3CCNCC3)cn2)nc1-c1cc2c(C3CCCC3)ccnc2s1 [Example 46, 4-(4-Cyclopentylthieno[2,3-b]pyridin-2-yl)-5-fluoro-N-(5-piperazin-1-ylpyridin-2-yl)pyrimidin-2-amine]	–	–	20 to 200 nM	200 to 2000 nM
CCN1CC2(C1)CN(c1ccc(Nc3ncc(F)c(-c4cc5c(C6CCCC6)ccnc5s4)n3)nc1)C2 [Example 47, 4-(4-Cyclopentylthieno[2,3-b]pyridin-2-yl)-N-[5-(6-ethyl-2,6-diazaspiro[3.3]heptan-2-yl)pyridin-2-yl]-5-fluoropyrimidin-2-amine]	–	–	20 to 200 nM	200 to 2000 nM
Cc1c(-c2nc(Nc3ccc(N4CCN(C)CC4)cn3)ncc2F)sc2c(C3CCCC3)nccc12 [Example 48, 4-(7-Cyclopentyl-3-methylthieno[2,3-c]pyridin-2-yl)-5-fluoro-N-(5-(4-methylpiperazin-1-yl)pyridin-2-yl)pyrimidin-2-amine]	–	–	200 to 2000 nM	200 to 2000 nM
Cc1c(-c2nc(Nc3ccc(C4CCN(C)CC4)cn3)ncc2F)sc2c(C3CCCC3)ncnc12 [Example 49, 4-(4-Cyclopentyl-7-methylthieno[3,2-d]pyrimidin-6-yl)-5-fluoro-N-(5-(1-methylpiperidin-4-yl)pyridin-2-yl)pyrimidin-2-amine]	–	–	200 to 2000 nM	200 to 2000 nM
CCN1CC2(C1)CN(c1ccc(Nc3ncc(F)c(-c4sc5c(C(C)C)nn(C)c(=O)c5c4C)n3)nc1)C2 [Example 63, 2-(2-((5-(6-Ethyl-2,6-diazaspiro[3.3]heptan-2-yl)pyridin-2-yl)amino)-5-fluoropyrimidin-4-yl)-7-isopropyl-3,5-dimethylthieno[2,3-d]pyridazin-4(5H)-one]	–	–	20 to 200 nM	200 to 2000 nM
CC(C)c1cn(C)c(=O)c2cc(-c3ccnc(Nc4ccc(C5CCN(C)CC5)cn4)n3)sc12 [Example 96, 7-Isopropyl-5-methyl-2-(2-((5-(1-methylpiperidin-4-yl)pyridine-2-yl)amino)pyrimidin-4-yl)thieno[3,2-c]pyridin-4(5H)-one]	–	–	20 to 200 nM	200 to 2000 nM
Cc1c(-c2nc(Nc3ccc(C4CC[N+](C)([O-])CC4)cn3)ncc2F)sc2c(C(C)C)cn(C)c(=O)c12 (stereo not shown) [Example 98, 4-(6-((5-Fluoro-4-(7-isopropyl-3,5-dimethyl-4-oxo-4,5-dihydrothieno[3,2-c]pyridin-2-yl)pyrimidin-2-yl)amino)pyridin-3-yl)-1-methylpiperidine 1-oxide]	–	–	≤ 20 nM	20 to 200 nM
CCN1CC2(C1)CN(c1ccc(Nc3ncc(F)c(-c4sc5c(C(C)(C)OC)n(C)nc5c4C)n3)nc1)C2 [Example 105, N-(5-(6-Ethyl-2,6-diazaspiro[3.3]heptan-2-yl)pyridin-2-yl)-5-fluoro-4-(3-(2-methoxypropan-2-yl)-2,6-dimethyl-2H-thieno[3,2-c]pyrazol-5-yl)pyrimidin-2-amine]	–	–	≤ 20 nM	20 to 200 nM

Other lines, results leading:

IC50 [1]	IC50 [2]	IC50 [3]	IC50 ([2]; Homo sapiens, 240 h)	Compound
20 to 200 nM	–	≤ 20 nM	20 to 200 nM	CCN1CCN(c2ccc(Nc3ncc(F)c(-c4cc5nccc(C(C)(C)O)c5s4)n3)nc2)CC1 [Example 17, 2-[2-[2-[[5-(4-Ethylpiperazin-1-yl)pyridin-2-yl]amino]-5-fluoropyrimidin-4-yl]thieno[3,2-b]pyridin-7-yl]propan-2-ol]
–	–	20 to 200 nM	200 to 2000 nM	CN1CCC(c2ccc(Nc3ncc(F)c(-c4cc5c(C6CCCC6)ccnc5s4)n3)nc2)CC1 [Example 43, 4-(4-Cyclopentylthieno[2,3-b]pyridin-2-yl)-5-fluoro-N-(5-(1-methylpiperidin-4-yl)pyridin-2-yl)pyrimidin-2-amine]
–	–	20 to 200 nM	200 to 2000 nM	CCN1CCN(c2ccc(Nc3ncc(F)c(-c4cc5c(C6CCCC6)ccnc5s4)n3)nc2)CC1 [Example 44, 4-(4-Cyclopentylthieno[2,3-b]pyridin-2-yl)-N-[5-(4-ethylpiperazin-1-yl)pyridin-2-yl]-5-fluoropyrimidin-2-amine]
–	–	20 to 200 nM	200 to 2000 nM	CN1CCN(c2ccc(Nc3ncc(F)c(-c4cc5c(C6CCCC6)ccnc5s4)n3)nc2)CC1 [Example 45, 4-(4-Cyclopentylthieno[2,3-b]pyridin-2-yl)-5-fluoro-N-[5-(4-methylpiperazin-1-yl)pyridin-2-yl]pyrimidin-2-amine]
20 to 200 nM	–	20 to 200 nM	–	Cc1c(-c2nc(Nc3ccccn3)ncc2F)sc2c1nc(C)n2C(C)C [Example 66, 4-(2,6-Dimethyl-3-propan-2-ylthieno[2,3-d]imidazol-5-yl)-5-fluoro-N-pyridin-2-ylpyrimidin-2-amine]
–	–	≤ 20 nM	20 to 200 nM	Cc1c(-c2nc(Nc3ccc(N4CCN5CCC4CC5)cn3)ncc2F)sc2c(C(C)C)cn(C)c(=O)c12 [Example 83, 2-(2-((5-(1,4-Diazabicyclo[3,2.2]nonan-4-yl)pyridin-2-yl)amino)-5-fluoropyrimidin-4-yl)-7-isopropyl-3,5-dimethylthieno[3,2-c]pyridin-4(5H)-one]
–	–	20 to 200 nM	200 to 2000 nM	CCN1CCN(Cc2ccc(Nc3ncc(F)c(-c4sc5c(C(C)C)[nH]nc5c4C)n3)nc2)CC1 [Example 100, N-(5-((4-Ethylpiperazin-1-yl)methyl)pyridin-2-yl)-5-fluoro-4-(3-isopropyl-6-methyl-2H-thieno[3,2-c]pyrazol-5-yl)pyrimidin-2-amine]
–	–	20 to 200 nM	20 to 200 nM	CCN1CC2(C1)CN(c1ccc(Nc3ncc(F)c(-c4sc5c(nc(N(C)C)n5C(C)C)c4C)n3)nc1)C2 [Example 111, 5-(2-((5-(6-Ethyl-2,6-diazaspiro[3.3]heptan-2-yl)pyridin-2-yl)amino)-5-fluoropyrimidin-4-yl)-3-isopropyl-N,N,6-trimethyl-3H-thieno[2,3-d]imidazol-2-amine]
–	20 to 200 nM	≤ 20 nM	–	Cc1c(-c2nc(Nc3ccc(C4CN(C)CCO4)cn3)ncc2F)sc2c1nc(C)n2C(C)C (stereo not shown) [Example 115, 5-Fluoro-4-(3-isopropyl-2,6-dimethyl-3H-thieno[2,3-d]imidazol-5-yl)-N-(5-(4-methylmorpholin-2-yl)pyridin-2-yl)pyrimidin-2-amine]

Source: patent US11685744B2, “CDK inhibitors and their use as pharmaceuticals” (Prelude Therapeutics, Incorporated, priority 2020, dated 2023)
